The source of these data is US8440710B2, “HSL inhibitors useful in the treatment of diabetes” (Hoffmann-La Roche Inc., priority 2009, dated 2013).

This assay deals with T1, human HSL (Homo sapiens, UniProt Q05469).
T1 construct: generate a full length human HSL ORF with a 3′-His6 tag; made in house; host or cells: High 5 insect cells (baculovirus, pFast-BAC)
T1 sequence (Q05469 1-1076): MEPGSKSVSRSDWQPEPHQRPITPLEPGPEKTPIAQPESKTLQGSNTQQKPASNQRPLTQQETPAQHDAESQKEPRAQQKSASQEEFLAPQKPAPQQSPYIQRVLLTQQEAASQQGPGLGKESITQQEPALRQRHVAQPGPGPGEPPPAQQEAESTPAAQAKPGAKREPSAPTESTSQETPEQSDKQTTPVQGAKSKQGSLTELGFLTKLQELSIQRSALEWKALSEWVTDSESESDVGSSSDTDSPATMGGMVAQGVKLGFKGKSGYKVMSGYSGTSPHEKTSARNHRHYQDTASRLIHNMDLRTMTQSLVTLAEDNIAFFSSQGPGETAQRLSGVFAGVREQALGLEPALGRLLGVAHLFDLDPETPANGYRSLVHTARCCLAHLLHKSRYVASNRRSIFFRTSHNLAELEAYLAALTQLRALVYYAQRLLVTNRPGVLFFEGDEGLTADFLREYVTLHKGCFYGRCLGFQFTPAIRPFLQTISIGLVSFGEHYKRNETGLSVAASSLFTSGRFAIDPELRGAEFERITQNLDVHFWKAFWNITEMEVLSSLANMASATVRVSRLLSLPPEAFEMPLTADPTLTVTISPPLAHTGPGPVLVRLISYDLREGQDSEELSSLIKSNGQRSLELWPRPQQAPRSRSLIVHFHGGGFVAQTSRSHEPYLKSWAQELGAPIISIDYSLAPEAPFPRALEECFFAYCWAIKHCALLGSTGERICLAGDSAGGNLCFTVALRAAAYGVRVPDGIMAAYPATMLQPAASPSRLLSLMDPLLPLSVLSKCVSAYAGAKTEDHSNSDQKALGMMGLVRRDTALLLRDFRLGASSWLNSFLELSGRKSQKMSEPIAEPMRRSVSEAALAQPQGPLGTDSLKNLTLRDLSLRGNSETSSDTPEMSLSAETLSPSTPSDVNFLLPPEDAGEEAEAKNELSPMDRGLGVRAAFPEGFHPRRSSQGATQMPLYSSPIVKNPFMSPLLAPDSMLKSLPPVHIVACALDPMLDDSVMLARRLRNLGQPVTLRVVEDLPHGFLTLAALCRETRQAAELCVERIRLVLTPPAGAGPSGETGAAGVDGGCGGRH
Nature of the assay: Human Hormone-Sensitive Lipase (HSL) enzyme inhibition assay (colorimetric, DMPT substrate). Type of assay: biochemical. As to conditions: human full length HSL-His6, 2,3-dimercapto-1-propanol tributyrate substrate, 37° C. 20 minutes, absorbance at 405 nm; read-out: HSL hum IC50. A digest of the protocol: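 Full-length human HSL with C-terminal His6, expressed in baculovirus-infected High 5 cells and Ni-NTA purified, was added (15 ug/ml stock) to 1.5 mM DMPT in 100 mM MOPS pH 7.2, 0.2 mg/ml fatty acid-free BSA containing compound. After 20 min at 37 °C, DTNB with SDS/Triton X-100 was added; A405 read after 15 min at RT.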
Take `COCC#C[C@]1(O)CC[C@@]2(CCN(c3ccc(OC(F)(F)F)cc3)C2=O)CC1` [Example 72, (5α,8β)-8-Hydroxy-8-(3-methoxy-prop-1-ynyl)-2-(4-trifluoromethoxy-phenyl)-2-aza-spiro[4.5]decan-1-one]: the IC50 was determined as 710 nM.
As for `CC(C)SC[C@]1(O)CC[C@]2(CCN(c3ccc(O[C@@H](C)C(F)(F)F)nc3)C2=O)CC1` [Example 320, (5α,8α)-8-Hydroxy-8-isopropylsulfanylmethyl-2-[6-((S)-2,2,2-trifluoro-1-methyl-ethoxy)-pyridin-3-yl]-2-aza-spiro[4.5]decan-1-one], the IC50 came to 10 nM.
Then `O=C1N(c2ccc(OC(F)(F)F)cc2)CC[C@]12CC[C@@H](Oc1ncccn1)CC2` [Example 20, (5α,8β)-8-(Pyrimidin-2-yloxy)-2-(4-trifluoromethoxy-phenyl)-2-aza-spiro[4.5]decan-1-one], with 100 nM; and `CC(C)OC[C@]1(O)CC[C@]2(CCN(c3ccc([C@@H](O)C(F)(F)F)cc3)C2=O)CC1` [Example 159, (5α,8α)-8-Hydroxy-8-isopropoxymethyl-2-[4-((R)-2,2,2-trifluoro-1-hydroxy-ethyl)-phenyl]-2-aza-spiro[4.5]decan-1-one], with 20 nM; and `CCC[C@]1(O)CC[C@]2(CCN(c3ccc(OCC(F)(F)F)cc3)C2=O)CC1` [Example 104, 8-Hydroxy-8-propyl-2-[4-(2,2,2-trifluoro-ethoxy)-phenyl]-2-aza-spiro[4.5]decan-1-one], with 20 nM.
For `CC(C)[S+]([O-])C[C@]1(O)CC[C@]2(CCN(c3ccc(OCC(F)(F)F)cc3)C2=O)CC1` (stereo partly drawn) [Example 317, (5α,8α)-8-Hydroxy-8-(propane-2-sulfinylmethyl)-2-[4-(2,2,2-trifluoro-ethoxy)-phenyl]-2-aza-spiro[4.5]decan-1-one], the half-inhibitory concentration (IC50) was found to be 200 nM.
For `CC(C)Oc1ccc(N2CC[C@]3(CC[C@@](O)(c4cnnn4C)CC3)C2=O)cc1` [Example 213], the IC50 was found to be 390 nM.
As for `C[C@@H](Oc1ccc(N2CC[C@]3(CC[C@](O)(COCC(F)F)CC3)C2=O)cn1)C(F)(F)F` [Example 313, (5α,8β)-8-(2,2-Difluoro-ethoxymethyl)-8-hydroxy-2-[6-((R)-2,2,2-trifluoro-1-methyl-ethoxy)-pyridin-3-yl]-2-aza-spiro[4.5]decan-1-one], the figure is 280 nM.
Consider `CC(C)Oc1ccc(N2CC[C@]3(CC[C@@](O)(c4ccn(C)n4)CC3)C2=O)cc1` [Example 217, (5α,8α)-8-hydroxy-2-(4-isopropoxyphenyl)-8-(1-methyl-1H-pyrazol-3-yl)-2-aza-spiro[4.5]decan-1-one], for which the IC50 turned out to be 50 nM.
Then `CCCOC[C@]1(O)CC[C@]2(CCN(c3ccc(O[C@H](C)C(F)(F)F)nc3)C2=O)CC1` [Example 312, (5α,8α)-8-Hydroxy-8-propoxymethyl-2-[6-((R)-2,2,2-trifluoro-1-methyl-ethoxy)-pyridin-3-yl]-2-aza-spiro[4.5]decan-1-one], with 10 nM; and `CCCC[C@]1(O)CC[C@]2(CCN(c3ccc(OC(F)(F)F)cc3)C2=O)CC1` [Example 66, (5α,8α)-8-Butyl-8-hydroxy-2-(4-trifluoromethoxy-phenyl)-2-aza-spiro[4.5]decan-1-one], with 30 nM.
As for `CC(C)CCOC[C@]1(O)CC[C@]2(CCN(c3ccc(OCC(F)(F)F)cc3)C2=O)CC1` [Example 291, (5α,8α)-8-Hydroxy-8-(3-methyl-butoxymethyl)-2-[4-(2,2,2-trifluoro-ethoxy)-phenyl]-2-aza-spiro[4.5]decan-1-one], the figure is 20 nM.
Then `CC(=O)[C@]1(O)CC[C@]2(CCN(c3ccc(OCC(F)(F)F)cc3)C2=O)CC1` [Example 338, (5α,8α)-8-Acetyl-8-hydroxy-2-[4-(2,2,2-trifluoro-ethoxy)-phenyl]-2-aza-spiro[4.5]decan-1-one], with 250 nM.

The term IC50 denotes the midpoint of a concentration-inhibition curve.
